Data from US20240261258A1, “Presurgical Perineural Administration of Resiniferatoxin For Reduction of Post-Operative Pain” (Sorrento Therapeutics, Inc., priority 2021, published 2024).

Experiment: RTX plasma concentrations after nerve block or local application
Format: in vivo, dog
Set-up: Plasma concentration: unit not given here
Procedure: Fourteen adult female beagle dogs, weighing 11.9±0.6 kg and between 3-5 years of age, were enrolled in this study. Each animal was randomly assigned to one of four groups. Four dogs (group 1) received a femoral and sciatic nerve block with 12.5 μg RTX per nerve (25 μg RTX total) diluted with sterile saline for a total volume of 2 mL (half volume per block). Another four dogs (group 2) received a femoral and a sciatic nerve block with 3.12 μg RTX per nerve block (6.25 μg RTX total) diluted with sterile saline for a total volume of 2 mL (half volume per block). Group 3 (4 animals) received a femoral and sciatic nerve block with 5 mg bupivacaine total (standard of care) plus a total of 50 μg RTX (total volume of 4 mL, concentration 12.5 μg/mL) applied locally to the cut on the tibia for 10 min. Group 4 (2 animals) was the control group and received a femoral and a sciatic nerve block with 5 mg bupivacaine total (standard of care).
Blood (4-5 mL) was collected at the beginning of the study for complete blood count and chemistry parameters. Another 2 mL sample was collected at time 0 (baseline), 5, 15, 45, 60, and 90 minutes, and at 2, 3, 4, 6, and 8 hours after RTX administration for pharmacokinetic analysis to determine how plasma levels of RTX change over time. Dog plasma samples were extracted using an organic solvent mixture, dried under nitrogen, reconstituted and analyzed by reversed-phase HPLC. The mobile phase was nebulized using heated nitrogen in a Z-spray source/interface set to electrospray positive ionization mode. The ionized compounds are detected using tandem mass spectrometry or MS/MS.
RTX Plasma concentrations (pg/mL) were measured in the dogs following administration of RTX solution as femoral and sciatic nerve blocks.

C=C(C)[C@]12C[C@@H](C)[C@@]34O[C@](Cc5ccccc5)(O[C@@H]1[C@@H]3C=C(COC(=O)Cc1ccc(O)c(OC)c1)C[C@]1(O)C(=O)C(C)=C[C@@H]41)O2 [RTX, resiniferatoxin]
Plasma concentrations for RTX (Group 2 Low Dose, 6.25 μg total F/Sc nerve block, 8 h, dogs 2561, 3743, 4681, 5686 in c3-c6): BQL (BQL—Below the Quantifiable Limit < 50.0 pg/mL) | Plasma concentrations for RTX (Group 2 Low Dose, 6.25 μg total F/Sc nerve block, Predose, dogs 2561, 3743, 4681, 5686 in c3-c6): BQL (BQL—Below the Quantifiable Limit < 50.0 pg/mL) | Plasma concentrations for RTX (Group 3 Local, 50 μg on bone incision, 0 min, dogs 2272, 3007, 3722, 9501 in c3-c6): BQL (BQL—Below the Quantifiable Limit < 50.0 pg/mL) | Plasma concentrations for RTX (Group 3 Local, 50 μg on bone incision, 5 min, dogs 2272, 3007, 3722, 9501 in c3-c6): BQL (BQL—Below the Quantifiable Limit < 50.0 pg/mL) | Plasma concentrations for RTX (Group 3 Local, 50 μg on bone incision, 15 min, dogs 2272, 3007, 3722, 9501 in c3-c6): BQL (BQL—Below the Quantifiable Limit < 50.0 pg/mL) | Plasma concentrations for RTX (Group 3 Local, 50 μg on bone incision, 45 min, dogs 2272, 3007, 3722, 9501 in c3-c6): BQL (BQL—Below the Quantifiable Limit < 50.0 pg/mL) | Plasma concentrations for RTX (Group 3 Local, 50 μg on bone incision, 60 min, dogs 2272, 3007, 3722, 9501 in c3-c6): BQL (BQL—Below the Quantifiable Limit < 50.0 pg/mL) | Plasma concentrations for RTX (Group 3 Local, 50 μg on bone incision, 90 min, dogs 2272, 3007, 3722, 9501 in c3-c6): BQL (BQL—Below the Quantifiable Limit < 50.0 pg/mL) | Plasma concentrations for RTX (Group 3 Local, 50 μg on bone incision, 2 h, dogs 2272, 3007, 3722, 9501 in c3-c6): BQL (BQL—Below the Quantifiable Limit < 50.0 pg/mL) | Plasma concentrations for RTX (Group 3 Local, 50 μg on bone incision, 3 h, dogs 2272, 3007, 3722, 9501 in c3-c6): BQL (BQL—Below the Quantifiable Limit < 50.0 pg/mL) | Plasma concentrations for RTX (Group 3 Local, 50 μg on bone incision, 4 h, dogs 2272, 3007, 3722, 9501 in c3-c6): BQL (BQL—Below the Quantifiable Limit < 50.0 pg/mL) | Plasma concentrations for RTX (Group 3 Local, 50 μg on bone incision, 6 h, dogs 2272, 3007, 3722, 9501 in c3-c6): BQL (BQL—Below the Quantifiable Limit < 50.0 pg/mL) | Plasma concentrations for RTX (Group 3 Local, 50 μg on bone incision, 8 h, dogs 2272, 3007, 3722, 9501 in c3-c6): BQL (BQL—Below the Quantifiable Limit < 50.0 pg/mL) | Plasma concentrations for RTX (Group 3 Local, 50 μg on bone incision, Predose, dogs 2272, 3007, 3722, 9501 in c3-c6): BQL (BQL—Below the Quantifiable Limit < 50.0 pg/mL) | Plasma concentration (Subject 2968 (group 1), 2 hour timepoint): 1790 | RTX plasma levels (all dogs that received the local application (50 μg)): below the quantifiable limit at all timepoints | concentration at 90 min (female, beagle, dog, plasma, 6.25 μg, Group 2 Low Dose, 6.25 μg total F/Sc nerve block, 90 min, dogs 2561, 3743, 4681, 5686 in c3-c6): 0.085 ng/mL | concentration at 2 h (female, beagle, dog, plasma, 6.25 μg, Group 2 Low Dose, 6.25 μg total F/Sc nerve block, 2 h, dogs 2561, 3743, 4681, 5686 in c3-c6): 0.0607 ng/mL | concentration at 3 h (female, beagle, dog, plasma, 6.25 μg, Group 2 Low Dose, 6.25 μg total F/Sc nerve block, 3 h, dogs 2561, 3743, 4681, 5686 in c3-c6): 0.0847 ng/mL | concentration at 4 h (female, beagle, dog, plasma, 6.25 μg, Group 2 Low Dose, 6.25 μg total F/Sc nerve block, 4 h, dogs 2561, 3743, 4681, 5686 in c3-c6): 0.0506 ng/mL | concentration at 0 min (female, beagle, dog, plasma, 25 μg, Group 1 High Dose, 25 μg total F/Sc nerve block, 0 min, dogs 0271, 2968, 3837, 5635 in c3-c6): 0.397 ng/mL | concentration at 5 min (female, beagle, dog, plasma, 25 μg, Group 1 High Dose, 25 μg total F/Sc nerve block, 5 min, dogs 0271, 2968, 3837, 5635 in c3-c6): 0.1 ng/mL | concentration at 15 min (female, beagle, dog, plasma, 25 μg, Group 1 High Dose, 25 μg total F/Sc nerve block, 15 min, dogs 0271, 2968, 3837, 5635 in c3-c6): 0.0964 ng/mL | concentration at 90 min (female, beagle, dog, plasma, 25 μg, Group 1 High Dose, 25 μg total F/Sc nerve block, 90 min, dogs 0271, 2968, 3837, 5635 in c3-c6): 0.0551 ng/mL | concentration at 6 h (female, beagle, dog, plasma, 25 μg, Group 1 High Dose, 25 μg total F/Sc nerve block, 6 h, dogs 0271, 2968, 3837, 5635 in c3-c6): 0.105 ng/mL | concentration at 8 h (female, beagle, dog, plasma, 25 μg, Group 1 High Dose, 25 μg total F/Sc nerve block, 8 h, dogs 0271, 2968, 3837, 5635 in c3-c6): 0.0656 ng/mL | RTX plasma levels at last time point (high dose group (25 μg total nerve block)): still detectable at 8 hours | Time after which RTX plasma levels fell to below detectable (low dose group (6.25 μg total nerve block)): 3 to 4 h | Time after administration until plasma levels of RTX reached detectable levels (nerve block, regardless of dose, except one dog in group 1 (subject 5635)): at least 90 minutes
